# Legend:
# Type in all cases: in vivo, Nude mice
# [1] = test system: human MDA-MB-231 breast cancer cells (ATCC#HTB-26); assay: MDA-MB-231 breast cancer xenograft, S1P1R antagonist + docetaxel; settings: docetaxel alone 7 mg/kg q3d ip; start 96 mgs
# Method: In this experiment, a maximum efficacy dose of an S1P1R receptor antagonist was used with an optimal dose of docetaxol (Haorui Pharma Chem, Inc; CAS#114977-28-5). Compound #2, 50, 52, or 75 were used in these experiments. Nude mice (athymic female mice, Taconic Farms, Inc., 10 animals per group) were inoculated subcutaneously with human MDA-MB-231 breast cancer cells (ATCC#HTB-26) (1×10^6 cells per animal). After tumors were allowed to grow for 17 days, one group of animals was treated with docetaxel at a dose of 7 mg/kg q3d ip. One group of animals was treated with a specific dose of S1P1R receptor antagonist and the same dose of docetaxel using the same schedule used for the individual docetaxel group. Finally, a control group was treated with the vehicles used for each agent individually. Tumor dimensions were measured by calipers and then converted to weight using the formula: tumor weight (mg)=[tumor volume=length (mm)×width^2(mm^2)]/2. Animals were also monitored for weight loss as an indicator of signs of toxicity. The S1P1R receptor antagonist was formulated in a composition containing 10% NMP (n-methyl pyrrolidone)+90% corn oil. […]
# Cells were inoculated subcutaneously on day 0 and allowed to grow for 17 days. […] Dosing continued for 7 cycles (q3d) and tumors in each of the three groups were measured and averaged. […]
# [2] = test system: human non-small cell lung carcinoma cells (ATCC #HTB-56); assay: Non-small cell lung carcinoma xenograft (Calu-6 XN model), S1P1R antagonist + paclitaxel; settings: paclitaxel alone 15 mg/kg q3d ip; dosing day 9 to day 31; control about 1500 mgs
# Method: In this experiment, a maximum efficacy dose of an S1P1R receptor antagonist was used with an optimal dose of paclitaxel (MP Biomedicals cat #193532). Nude mice (athymic female mice, Taconic Farms, Inc., 10 animals per group) were inoculated subcutaneously with human non-small cell lung carcinoma cells (ATCC #HTB-56) (1×10^6 cells per animal). After tumors were allowed to grow for 9 days, one group of animals was treated with a S1P1R receptor antagonist (100 mg/kg qd po). A second group of animals was treated with paclitaxel at a dose of 15 mg/kg q3d ip. A third group of animals was treated with a S1P1R receptor antagonist and paclitaxel using the same dose and schedule used for the individual agents. A fourth control group was treated with the vehicles used for each agent individually. Tumor dimensions were measured by calipers and then converted to weight using the formula: tumor weight (mg)=[tumor volume=length (mm)×[…]]/2. Animals were also monitored for weight loss as an indicator of signs of toxicity. […]
# Cells were inoculated subcutaneously on day 0 and allowed to grow for 9 days. […] Dosing continued until day 31 and tumors from some animals in each of the four groups were measured and averaged. Some animals in the paclitaxel group and the combined treatment group were monitored after treatment stopped for a period of time. […]
# [3] = test system: human MDA-MB-231 cells breast cancer cells (ATCC #HTB-26); assay: MDA-MB-231 breast cancer xenograft, S1P1R antagonist + paclitaxel; settings: paclitaxel alone 7.5 mg/kg q3d ip; start 100 mgs
# Method: In this experiment, 4 different doses of an S1P1R receptor antagonist, 0.3 mgs/kg, 3 mgs/kg, 10 mgs/kg or 30 mgs/kg was used with an optimal dose of paclitaxel (MP Biomedicals cat #193532). Nude mice (athymic female mice, Taconic Farms, Inc., 10 animals per group) were inoculated subcutaneously with human MDA-MB-231 cells breast cancer cells (ATCC #HTB-26) (1×10^6 cells per animal). After tumors were allowed to grow for 21 days, one group of animals was treated with paclitaxel at a dose of 7.5 mg/kg q3d ip. Four groups of animals were treated with a specific concentration of S1P1R receptor antagonist and the same concentration of paclitaxel using the same schedule used for the individual paclitaxel group. Finally, a control group was treated with the vehicles used for each agent individually. Tumor dimensions were measured by calipers and then converted to weight using the formula: tumor weight (mg)=[tumor volume=length (mm)×[…]]/2. Animals were also monitored for weight loss as an indicator of signs of toxicity. The S1P1R Receptor antagonist was formulated in a compostion containing 10% NMP (n-methyl pyrrolidone)+90% corn oil. […]
# Cells were inoculated subcutaneously on day 0 and allowed to grow for 21 days. […] Dosing continued for 19 days and tumors in each of the four groups were measured and averaged. […]
# [4] = test system: human MDA-MB-231 breast cancer cells (ATCC# HTB-26); assay: MDA-MB-231 breast cancer xenograft, S1P1R antagonist + vincristine; settings: start 95 mgs
# Method: In this experiment, a maximum efficacy dose of an S1P1R receptor antagonist was used with doses of vincristine (Yes Pharma, Ltd., CAS#2068-78-2, Lot#80702). Compound #2, 50, 52, or 75 were used in these experiments. Nude mice (athymic female mice, Taconic Farms, Inc., 10 animals per group) were inoculated subcutaneously with human MDA-MB-231 breast cancer cells (ATCC# HTB-26) (1×10^6 cells per animal). After tumors were allowed to grow for 19 days, two groups of animals were treated with vincristine at doses of 0.1 or 1 mg/kg q3d iv. One group of animals was treated with a specific concentration of S1P1R receptor antagonist. Two groups of animals were treated with a specific dose of S1P1R receptor antagonist and the same dose of vincristine using the same schedule used for the individual vincristine groups. Finally, a control group was treated with the vehicles used for each agent individually. Tumor dimensions were measured by calipers and then converted to weight using the formula: tumor weight (mg)=[tumor volume=length (mm)×width^2(mm^2)]/2. Animals were also monitored for weight loss as an indicator of signs of toxicity. […]
# Cells were inoculated subcutaneously on day 0 and allowed to grow for 19 days. […] Dosing continued for 8 cycles (q3d) and tumors in each of the six groups were measured and averaged. […]
smiles,measurement,setting,value
CC(=O)O[C@@]12CO[C@@H]1C[C@H](O)[C@@]1(C)C(=O)[C@H](O)C3=C(C)[C@@H](OC(=O)[C@H](O)[C@@H](NC(=O)OC(C)(C)C)c4ccccc4)C[C@@](O)([C@@H](OC(=O)c4ccccc4)[C@H]21)C3(C)C [docetaxel],average tumor weight after 7 cycles of treatment,[1],about 310 mgs
CC(=O)O[C@H]1C(=O)[C@@]2(C)[C@H]([C@H](OC(=O)c3ccccc3)[C@]3(O)C[C@H](OC(=O)[C@H](O)[C@@H](NC(=O)c4ccccc4)c4ccccc4)C(C)=C1C3(C)C)[C@]1(OC(C)=O)CO[C@@H]1C[C@@H]2O [paclitaxel],average tumor weight after treatment,[2],about 550 mgs
same,average tumor weight after 19 days of treatment,[3],about 325 mgs
CC[C@]1(O)C[C@H]2CN(CCc3c([nH]c4ccccc34)[C@@](C(=O)OC)(c3cc4c(cc3OC)N(C=O)[C@H]3[C@@](O)(C(=O)OC)[C@H](OC(C)=O)[C@]5(CC)C=CCN6CC[C@]43[C@@H]65)C2)C1 [vincristine],average tumor weight after 8 cycles of treatment,[4]; vincristine alone 0.1 mg/kg q3d iv,659 mg
same,average tumor weight after 8 cycles of treatment,[4]; vincristine alone 1 mg/kg q3d iv,26 mg

# From patent US8802692B2, “Synergistic effects between sphingosine-1-phosphate receptor antagonists and antimicrotubule agents” (Exelixis, Inc., priority 2008, dated 2014)
